{
  "source": "patent US20240409558A1",
  "about": "“IRREVERSIBLE INHIBITORS OF KRAS” (BIOMEA FUSION, INC., priority 2021, published 2024)",
  "data": [
    {"system": "human KRAS G12C mutated cell line MIA PaCa-2", "assay": "Inhibition of proliferation of MIA PaCa-2 cells (CellTiter-Glo, 7 day)", "type": "cell-based", "conditions": "168 h, Table 4, 7 day, mean, read-out: MIA PaCa-2 IC50 (μM) 7 day Mean", "text": "The present example evaluates the ability of compounds provided herein to inhibit proliferation of KRAS mutant cells.\nThe proliferation inhibitory effect was investigated in the human KRAS G12C mutated cell line MIA PaCa-2 (Yunis et al., 1977, Int. J. Cancer 19(1):128-135; ATCC catalog no. CRL-1420). Cells were maintained in RPMI-1640 medium (ThermoFisher catalog no. 61870036) supplemented with 10% of Heat Inactivated FBS (ThermoFisher catalog no. A31605) and 1% Pen-Strep (ThermoFisher catalog no. 10378016) and cultured at 37° C. in a humidified incubator with 5% CO2. Cell lines were grown by adhering to culture flasks, and the cells were maintained in a range 70%-80% confluency.\nATP is present in all metabolically active cells and is considered as a marker for cell viability and proliferation. Metabolic cell activity was determined using the CellTiter-Glo kit (Promega catalog no. G7572), an ATP monitoring system based on the production of luminescence by the reaction of ATP with added UltraGlo® recombinant luciferase (Kawano et al., 2016, PLOS One, 8; 11(7):e0158888), according to the supplier's experimental recommendations. The assay was based on a 96 well plate format.\nTest compounds were dissolved at 10 mM in DMSO (Sigma catalog no. D8418; purity >99.9%) and stored at −20° C. Eight concentrations of test compound were assessed in duplicate in an individual test occasion in parallel in the selected cell lines. MRTX-849 and AMG-510 were used as reference compounds and tested in duplicate at eight concentrations. 100% of proliferation is represented by the untreated cells (0.2% DMSO).\n(§1) On the day of the experiment (TO), cells were detached with TrypLE (ThermoFisher catalog no. 12604054) and quantified using the Vi-CELL XR Cell Viability (Beckman Coulter) analyzer and diluted with fresh medium to obtain the cell density of about 1000 cells per 200 μL medium. 200 μL of cell suspension were added into wells in the 96 well plate.\nAfter 2 hours from seeding cells, compounds were added using a D300e compound dispenser (Tecan Trading AG) at desired concentrations with shaking between each compound dispensed. Cell plates containing 200 μL/well were incubated at 37° C. in a humidified incubator with 5% CO2.\nOn day T3, 150 μL of growth media per well were removed from plates containing the samples, 150 uL fresh growth media were added to each well, and fresh compounds were added using a D300e compound dispenser (Tecan Trading AG) at desired concentrations with shaking between each compound dispensed. Cell plates containing 200 uL/well were incubated at 37° C. in a humidified incubator with 5% CO2. On day T7 plates containing the samples were equilibrated at room temperature for approximately 15 min, and then 40 μL/well of the Promega CellTiterGlo® reagent was added. Contents were mixed for 30 minutes on an orbital shaker to induce cell lysis. Luminescence was read using a Synergy Neo 2 (Agilent Technologies.\nData was expressed as % of inhibition compared to the 0.2% DMSO negative control, and is calculated as follows: % inhibition=100−[(RLU sample)×100/(RLU controls*)], where * indicates the average for 0.2% DMSO. […]\nas §1, with “12604054),” for “12604054) and”, “resuspended in” for “diluted with”, “at a” for “to obtain the”, “to each well of a” for “into wells in the”\nTwo hours after seeding cells, compounds were added at desired concentrations using a D300e compound dispenser (Tecan Trading AG) with shaking after each compound addition. Assay plates were incubated at 37° C. in a humidified incubator with 5% CO2.\nOn day 3 (T3) 150 μL of medium from assay plates were removed. 150 μL fresh medium and compounds were added at desired concentrations using a D300e compound dispenser (Tecan Trading AG) with shaking after each compound addition. […]", "units": {"IC50": "µM"}, "values": [
      {"smiles": "Oc1cc2cccc(-c3ncc4c(N5CC6CCC(C5)N6)nc(OC[C@@]56CCCN5C[C@H](F)C6)nc4c3F)c2c(F)c1F", "note": "[Compound 401, 5-[4-(3,8-diazabicyclo[3.2.1]octan-3-yl)-8-fluoro-2-[[(2R,8S)-2-fluoro-1,2,3,5,6,7-hexahydropyrrolizin-8-yl]methoxy]pyrido[4,3-d]pyrimidin-7-y1]-3,4-difluoro-naphthalen-2-ol]", "IC50": "> 1"},
      {"smiles": "Oc1cc(-c2ncc3c(C45CCNCC4C5)nc(OC[C@@]45CCCN4C[C@H](F)C5)nc3c2F)c2ccccc2c1", "note": "(stereo partly drawn) [Compound 403, 4-[4-(3-azabicyclo[4.1.0]heptan-6-yl)-8-fluoro-2-[[(2R,8S)-2-fluoro-1,2,3,5,6,7-hexahydropyrrolizin-8-yl]methoxy]pyrido[4,3-d]pyrimidin-7-yl]naphthalen-2-ol]", "IC50": 7.83},
      {"smiles": "Oc1cc(Cl)c(C2CC2)c(-c2cc3nc(OC[C@@]45CCCN4C[C@H](F)C5)nc(N4CC5CCC(C4)N5)c3cc2F)c1", "note": "[Compound 404, 3-chloro-4-cyclopropyl-5-[4-(3,8-diazabicyclo[3.2.1]octan-3-yl)-6-fluoro-2-[[(2R,8S)-2-fluoro-1,2,3,5,6,7-hexahydropyrrolizin-8-yl]methoxy]quinazolin-7-yl]phenol]", "IC50": "> 1"},
      {"smiles": "Oc1cc(Cl)c(C2CC2)c(-c2cc3nc(OC[C@@]45CCCN4C[C@H](F)C5)nc(N4CCNC5(CC5)C4)c3cc2F)c1", "note": "[Compound 405, 3-chloro-4-cyclopropyl-5-[4-(4,7-diazaspiro[2.5]octan-7-y1)-6-fluoro-2-[[(2R,8S)-2-fluoro-1,2,3,5,6,7-hexahydropyrrolizin-8-yl]methoxy]quinazolin-7-yl]phenol]", "IC50": "> 1"},
      {"smiles": "Oc1cc(Cl)c(C2CC2)c(-c2cnc3c(N4C[C@H]5C[C@@H]4CN5)nc(OC[C@@]45CCCN4C[C@H](F)C5)nc3c2)c1", "note": "[Compound 406, 3-chloro-4-cyclopropyl-5-[4-[(1R,4R)-2,5-diazabicyclo[2.2.1]heptan-2-yl]-2-[[(2R,8S)-2-fluoro-1,2,3,5,6,7-hexahydropyrrolizin-8-yl]methoxy]pyrido[3,2-d]pyrimidin-7-yl]phenol]", "IC50": "> 1"},
      {"smiles": "N#C[C@H]1CNCCN1c1nc(OC[C@@]23CCCN2C[C@H](F)C3)nc2cc(F)c(-c3cccc4cccc(Cl)c34)cc12", "note": "[Compound 407, (2R)-1-[6-(8-chloro-1-naphthyl)-7-fluoro-2-[[(2R,8S)-2-fluoro-1,2,3,5,6,7-hexahydropyrrolizin-8-yl]methoxy]quinazolin-4-yl]piperazine-2-carbonitrile]", "IC50": "> 1"},
      {"smiles": "Fc1cc2c(N3CCNCC34CC4)nc(OC[C@@]34CCCN3C[C@H](F)C4)nc2cc1-c1cccc2cccc(Cl)c12", "note": "[Compound 408, 7-(8-chloro-1-naphthyl)-4-(4,7-diazaspiro[2.5]octan-4-yl)-6-fluoro-2-[[(2R,8S)-2-fluoro-1,2,3,5,6,7-hexahydropyrrolizin-8-yl]methoxy]quinazoline]", "IC50": "> 1"},
      {"smiles": "Oc1cc(Cl)c(C2CC2)c(-c2ccc3c(N4CCNC5(CC5)C4)nc(OC[C@@]45CCCN4C[C@H](F)C5)nc3c2F)c1", "note": "[Compound 409, 3-chloro-4-cyclopropyl-5-[4-(4,7-diazaspiro[2.5]octan-7-yl)-8-fluoro-2-[[(2R,8S)-2-fluoro-1,2,3,5,6,7-hexahydropyrrolizin-8-yl]methoxy]quinazolin-7-yl]phenol]", "IC50": "> 1"},
      {"smiles": "Oc1cc(Cl)c(C2CC2)c(-c2cnc3c(N4CCNC5(CC5)C4)nc(OC[C@@]45CCCN4C[C@H](F)C5)nc3c2)c1", "note": "[Compound 410]", "IC50": "> 1"},
      {"smiles": "Fc1cc2c(N3C[C@H]4C[C@@H]3CN4)nc(OC[C@@]34CCCN3C[C@H](F)C4)nc2cc1-c1cccc2cccc(Cl)c12", "note": "[Compound 411, 7-(8-chloro-1-naphthyl)-4-[(1R,4R)-2,5-diazabicyclo[2.2.1]heptan-2-y1]-6-fluoro-2-[[(2R,8S)-2-fluoro-1,2,3,5,6,7-hexahydropyrrolizin-8-yl]methoxy]quinazoline]", "IC50": "> 1"},
      {"smiles": "Oc1cc(Cl)c(C2CC2)c(-c2cc3nc(OC[C@@]45CCCN4C[C@H](F)C5)nc(N4CCNCC45CC5)c3cc2F)c1", "note": "[Compound 412, 3-chloro-4-cyclopropyl-5-[4-(4,7-diazaspiro[2.5]octan-4-yl)-6-fluoro-2-[[(2R,8S)-2-fluoro-1,2,3,5,6,7-hexahydropyrrolizin-8-yl]methoxy]quinazolin-7-yl]phenol]", "IC50": "> 1"},
      {"smiles": "C[C@@H]1CNCCN1c1nc(OC[C@@]23CCCN2C[C@H](F)C3)nc2cc(-c3c(O)cccc3C3CC3)cnc12", "note": "[Compound 413]", "IC50": "> 1"},
      {"smiles": "Oc1cc(Cl)c(C2CC2)c(-c2cnc3c(N4CCNCC45CC5)nc(OC[C@@]45CCCN4C[C@H](F)C5)nc3c2)c1", "note": "[Compound 414, 3-chloro-4-cyclopropyl-5-[4-(4,7-diazaspiro[2.5]octan-4-yl)-2-[[(2R,8S)-2-fluoro-1,2,3,5,6,7-hexahydropyrrolizin-8-yl]methoxy]pyrido[3,2-d]pyrimidin-7-yl]phenol]", "IC50": "> 1"},
      {"smiles": "N#C[C@H]1CNCCN1c1nc(OC[C@@]23CCCN2C[C@H](F)C3)nc2c(F)c(-c3cc(O)cc(Cl)c3C3CC3)ccc12", "note": "[Compound 415, (2R)-1-[7-(3-chloro-2-cyclopropyl-5-hydroxy-phenyl)-8-fluoro-2-[[(2R,8S)-2-fluoro-1,2,3,5,6,7-hexahydropyrrolizin-8-yl]methoxy]quinazolin-4-y1]piperazine-2-carbonitrile]", "IC50": "> 1"},
      {"smiles": "N#CC1CNCCN1c1nc(OC[C@@]23CCCN2C[C@H](F)C3)nc2cc(-c3cc(O)cc(Cl)c3C3CC3)cnc12", "note": "(stereo partly drawn) [Compound 416, 1-[7-(3-chloro-2-cyclopropyl-5-hydroxy-phenyl)-2-[[(2R,8S)-2-fluoro-1,2,3,5,6,7-hexahydropyrrolizin-8-yl]methoxy]pyrido[3,2-d]pyrimidin-4-yl]piperazine-2-carbonitrile]", "IC50": "> 1"},
      {"smiles": "Oc1cc(Cl)c(C2CC2)c(-c2cc3nc(OC[C@@]45CCCN4C[C@H](F)C5)nc(N4C[C@H]5C[C@@H]4CN5)c3cc2F)c1", "note": "[Compound 417]", "IC50": "> 1"},
      {"smiles": "Oc1cccc(Cl)c1-c1cc(F)c2c(N3C[C@H]4C[C@@H]3CN4)nc(OC[C@@]34CCCN3C[C@H](F)C4)nc2c1", "note": "[Compound 418]", "IC50": "> 1"},
      {"smiles": "Oc1cccc(Cl)c1-c1cc(F)c2c(N3CCNCC34CC4)nc(OC[C@@]34CCCN3C[C@H](F)C4)nc2c1", "note": "[Compound 419, 3-chloro-2-[4-(4,7-diazaspiro[2.5]octan-4-yl)-5-fluoro-2-[[(2R,8S)-2-fluoro-1,2,3,5,6,7-hexahydropyrrolizin-8-yl]methoxy]quinazolin-7-yl]phenol]", "IC50": "> 1"},
      {"smiles": "Oc1cccc(Cl)c1-c1cc(OCC23CCCN2C[C@H](F)C3)c2c(N3CCNCC34CC4)nc(OC[C@@]34CCCN3C[C@H](F)C4)nc2c1", "note": "(stereo partly drawn) [Compound 420, 3-chloro-2-[4-(4,7-diazaspiro[2.5]octan-4-yl)-5-[[(2R)-2-fluoro-1,2,3,5,6,7-hexahydropyrrolizin-8-yl]methoxy]-2-[[(2R,8S)-2-fluoro-1,2,3,5,6,7-hexahydropyrrolizin-8-yl]methoxy]quinazolin-7-yl]phenol]", "IC50": "> 1"},
      {"smiles": "Fc1cc2c(N3CCNC4(CC4)C3)nc(OC[C@@]34CCCN3C[C@H](F)C4)nc2cc1-c1cccc2cccc(Cl)c12", "note": "[Compound 421, 7-(8-chloro-1-naphthyl)-4-(4,7-diazaspiro[2.5]octan-7-y1)-6-fluoro-2-[[(2R,8S)-2-fluoro-1,2,3,5,6,7-hexahydropyrrolizin-8-yl]methoxy]quinazoline]", "IC50": "> 1"}
    ]}
  ]
}
